The assay deals with recombinant DYRK1A kinase (Homo sapiens, UniProt Q13627). Briefly: DYRK1A kinase assay (Ser/Thr 18 peptide Z-lyte FRET). The settings on record: DYRK1A kinase activity; 15 μM ATP, 4 μM Ser/Thr peptide 18, one hour at room temperature. It counts as biochemical. In a few lines: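 Recombinant DYRK1A at 0.25 μg/mL was incubated 1 h at room temperature with 15 μM ATP, 4 μM Ser/Thr 18 peptide and compound, in duplicate, 11-point series from 10 μM. Phosphorylation was read by Z-lyte FRET after 1 h protease development, as the coumarin/fluorescein emission ratio converted to % phosphorylation. IC50 by non-linear regression.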

pEC50: −log10 of the molar value.

What is called pEC50 is −log10 of the EC50, conventionally taken in molar units.

Turning to `CN1CCN(C(=O)c2cnc3[nH]cc(-c4ccn5ncc(-c6cnn(C)c6)c5c4)c3c2)CC1` [Compound 502, (3-(3-(1-Methyl-1H-pyrazol-4-yl)pyrazolo[1,5-a]pyridin-5-yl)-1H-pyrrolo[2,3-b]pyridin-5-yl)(4-methylpiperazin-1-yl)methanone], the pEC50 is 7.80.

In the case of `CN1CCN(C(=O)c2cnc3[nH]cc(-c4ccc5c(c4)OCCNC5=O)c3c2)CC1` [Compound 521, 8-(5-(4-Methylpiperazine-1-carbonyl)-1H-pyrrolo[2,3-b]pyridin-3-yl)-3,4-dihydrobenzo[f][1,4]oxazepin-5(2H)-one], the pEC50 was 8.05.

For the molecule `Cc1nc2c(F)cc(-c3c[nH]c4ncc(C(=O)N5C6CCC5CN(C)C6)cc34)cc2n1C(C)C` [Compound 535, (3-(4-Fluoro-1-isopropyl-2-methyl-1H-benzo[d]imidazol-6-yl)-1H-pyrrolo[2,3-b]pyridin-5-yl)(3-methyl-3,8-diazabicyclo[3.2.1]octan-8-yl)methanone], the pEC50 was 8.70.

As to `Cc1cn2c(n1)CN(C(=O)c1cnc3[nH]cc(-c4cc5n(c4)CCNC5=O)c3c1)CC2` [Compound 573, 7-(5-(2-Methyl-5,6,7,8-tetrahydroimidazo[1,2-a]pyrazine-7-carbonyl)-1H-pyrrolo[2,3-b]pyridin-3-yl)-3,4-dihydropyrrolo[1,2-a]pyrazin-1(2H)-one], the pEC50 was 8.00.

Consider `Cc1cn2c(n1)CN(C(=O)c1cnc3[nH]cc(-c4cc(F)c5nc(C)n(C(C)C)c5c4)c3c1)CC2` [Compound 577, (3-(4-Fluoro-1-isopropyl-2-methyl-1H-benzo[d]imidazol-6-yl)-1H-pyrrolo[2,3-b]pyridin-5-yl)(2-methyl-5,6-dihydroimidazo[1,2-a]pyrazin-7(8H)-yl)methanone], for which the pEC50 is 8.52.

Take `CN1CCC(C(=O)Nc2cnc3[nH]cc(-c4ccc5ncccc5c4)c3c2)CC1` [Compound 648, 1-Methyl-N-(3-(quinolin-6-yl)-1H-pyrrolo[2,3-b]pyridin-5-yl) piperidine-4-carboxamide]: the pEC50 was 8.70.

As to `Cc1nc2c(F)cc(-c3c[nH]c4ncc(C(=O)Nc5cnn(C6CCNCC6)c5)cc34)cc2n1C(C)C` [Compound 661, 3-(4-Fluoro-1-isopropyl-2-methyl-1H-benzo[d]imidazol-6-yl)-N-(1-(piperidin-4-yl)-1H-pyrazol-4-yl)-1H-pyrrolo[2,3-b]pyridine-5-carboxamide], the negative-log EC50 (pEC50) was 8.70.

With `Cc1nc2c(F)cc(-c3c[nH]c4ncc(C(=O)Nc5cnn(C6CCN(C)CC6)c5)cc34)cc2n1C(C)C` [Compound 703, 3-(4-Fluoro-1-isopropyl-2-methyl-1H-benzo[d]imidazol-6-yl)-N-(1-(1-methylpiperidin-4-yl)-1H-pyrazol-4-yl)-1H-pyrrolo[2,3-b]pyridine-5-carboxamide], the pEC50 is 8.52.

As for `O=C(Nc1cncc(F)c1)c1cnc2[nH]cc(-c3ccc4c(c3)C3(CCNCC3)CC4=O)c2c1` [Compound 764, N-(5-fluoropyridin-3-yl)-3-(3-oxo-2,3-dihydrospiro[indene-1,4′-piperidin]-6-yl)-1H-pyrrolo[2,3-b]pyridine-5-carboxamide], the pEC50 was 7.66.

Turning to `Cc1nc2c(F)cc(-c3c[nH]c4ncc(C(=O)Nc5ccc(N6CCN(C)CC6)nc5)cc34)cc2n1C(C)C` [Compound 787, 3-(4-Fluoro-1-isopropyl-2-methyl-1H-benzo[d]imidazol-6-yl)-N-(6-(4-methylpiperazin-1-yl)pyridin-3-yl)-1H-pyrrolo[2,3-b]pyridine-5-carboxamide], the pEC50 is 8.52.

`CN1CCN(c2ccc(NC(=O)c3cnc4[nH]cc(-c5ccn6ncnc6c5)c4c3)cn2)CC1` [Compound 792, 3-([1,2,4]Triazolo[1,5-a]pyridin-7-yl)-N-(6-(4-methylpiperazin-1-yl)pyridin-3-yl)-1H-pyrrolo[2,3-b]pyridine-5-carboxamide]: the negative-log EC50 (pEC50) is 8.00.

On to `CN1CCN(c2ccc(NC(=O)c3cnc4[nH]cc(-c5ccn6ncc(C(=O)N7CCCCC7)c6c5)c4c3)cn2)CC1` [Compound 802, N-(6-(4-Methylpiperazin-1-yl)pyridin-3-yl)-3-(3-(piperidine-1-carbonyl)pyrazolo[1,5-a]pyridin-5-yl)-1H-pyrrolo[2,3-b]pyridine-5-carboxamide], for which the pEC50 was 8.15.

Consider `CN1CCN(c2ccc(NC(=O)c3cnc4[nH]cc(-c5ccc6c(c5)C(C)(C)CNC6=O)c4c3)cn2)CC1` [Compound 813, 3-(4,4-Dimethyl-1-oxo-1,2,3,4-tetrahydroisoquinolin-6-yl)-N-(6-(4-methylpiperazin-1-yl)pyridin-3-yl)-1H-pyrrolo[2,3-b]pyridine-5-carboxamide], for which the negative logarithm of the EC50 (pEC50) was 8.52.

On to `Cc1nc2c(F)cc(-c3c[nH]c4ncc(NC(=O)c5ccnc(N6CCNCC6)c5)cc34)cc2n1C(C)C` [Compound 829, N-(3-(4-Fluoro-1-isopropyl-2-methyl-1H-benzo[d]imidazol-6-yl)-1H-pyrrolo[2,3-b]pyridin-5-yl)-2-(piperazin-1-yl)isonicotinamide], for which the pEC50 was 8.70.

As for `Cc1nc2c(F)cc(-c3c[nH]c4ncc(Nc5ccnc(N6CCN(C)CC6)c5)cc34)cc2n1C(C)C` [Compound 871, 3-(4-Fluoro-1-isopropyl-2-methyl-1H-benzo[d]imidazol-6-yl)-N-(2-(4-methylpiperazin-1-yl)pyridin-4-yl)-1H-pyrrolo[2,3-b]pyridin-5-amine], the pEC50 was 8.70.

With `Cc1nc2c(F)cc(-c3c[nH]c4ncc(-c5ccccc5)cc34)cc2n1C(C)C` [Compound 913, 4-Fluoro-1-isopropyl-2-methyl-6-(5-phenyl-1H-pyrrolo[2,3-b]pyridin-3-yl)-1H-benzo[d]imidazole], the negative-log EC50 (pEC50) is 8.40.

For `Cc1ccccc1-c1cnc2[nH]cc(-c3cc(F)c4nc(C)n(C(C)C)c4c3)c2c1` [Compound 955, 4-Fluoro-1-isopropyl-2-methyl-6-(5-(o-tolyl)-1H-pyrrolo[2,3-b]pyridin-3-yl)-1H-benzo[d]imidazole], the pEC50 is 7.70.

For `Cc1nc2c(F)cc(-c3c[nH]c4ncc(-c5cc(F)c(F)c(N6CCNCC6)c5)cc34)cc2n1C(C)C` [Compound 997, 6-(5-(3,4-Difluoro-5-(piperazin-1-yl)phenyl)-1H-pyrrolo[2,3-b]pyridin-3-yl)-4-fluoro-1-isopropyl-2-methyl-1H-benzo[d]imidazole], the pEC50 was 8.22.

`Cn1cc(-c2cnc3[nH]cc(-c4ccc5nccn5c4)c3c2)cn1` [Compound 1036, 6-(5-(1-Methyl-1H-pyrazol-4-yl)-1H-pyrrolo[2,3-b]pyridin-3-yl) imidazo[1,2-a]pyridine]: the pEC50 was 8.70.

Take `CN1CCN(C(=O)c2cnn3ccc(-c4c[nH]c5ncc(-c6cnn(C)c6)cc45)cc23)CC1` [Compound 1055, (5-(5-(1-Methyl-1H-pyrazol-4-yl)-1H-pyrrolo[2,3-b]pyridin-3-yl)pyrazolo[1,5-a]pyridin-3-yl)(4-methylpiperazin-1-yl)methanone]: the pEC50 was 8.05.

As to `CN1CCC(Nc2ncnc3ccc(-c4c[nH]c5ncc(-c6cnn(C)c6)cc45)cc23)CC1` [Compound 1074, 6-(5-(1-Methyl-1H-pyrazol-4-yl)-1H-pyrrolo[2,3-b]pyridin-3-yl)-N-(1-methylpiperidin-4-yl)quinazolin-4-amine], the pEC50 was 7.72.

Regarding `Cc1nn(C)c(C)c1-c1cnc2[nH]cc(-c3cc(F)c4nc(C)n(C(C)C)c4c3)c2c1` [Compound 1081, 4-Fluoro-1-isopropyl-2-methyl-6-(5-(1,3,5-trimethyl-1H-pyrazol-4-yl)-1H-pyrrolo[2,3-b]pyridin-3-yl)-1H-benzo[d]imidazole], the pEC50 is 8.70.

As for `Cc1nc2c(F)cc(-c3c[nH]c4ncc(-c5cnn6c5CN(C)CC6)cc34)cc2n1C(C)C` [Compound 1123, 3-(3-(4-Fluoro-1-isopropyl-2-methyl-1H-benzo[d]imidazol-6-yl)-1H-pyrrolo[2,3-b]pyridin-5-yl)-5-methyl-4,5,6,7-tetrahydropyrazolo[1,5-a]pyrazine], the pEC50 was 8.40.

Consider `CN1CCn2ncc(-c3cnc4[nH]cc(-c5ccn6ncc(C(=O)Nc7cccnc7)c6c5)c4c3)c2C1` [Compound 1137, 5-(5-(5-Methyl-4,5,6,7-tetrahydropyrazolo[1,5-a]pyrazin-3-yl)-1H-pyrrolo[2,3-b]pyridin-3-yl)-N-(pyridin-3-yl)pyrazolo[1,5-a]pyridine-3-carboxamide], for which the negative logarithm of the EC50 (pEC50) was 8.40.

Regarding `CN1CCn2ncc(-c3cnc4[nH]cc(-c5ccc6ncncc6c5)c4c3)c2C1` [Compound 1154, 6-(5-(5-Methyl-4,5,6,7-tetrahydropyrazolo[1,5-a]pyrazin-3-yl)-1H-pyrrolo[2,3-b]pyridin-3-yl)quinazoline], the pEC50 is 8.00.

For the molecule `Cc1nc2c(F)cc(-c3c[nH]c4ncc(-c5cccnc5)cc34)cc2n1C1CCN(C)CC1` [Compound 1166, 4-Fluoro-2-methyl-1-(1-methylpiperidin-4-yl)-6-(5-(pyridin-3-yl)-1H-pyrrolo[2,3-b]pyridin-3-yl)-1H-benzo[d]imidazole], the pEC50 was 8.52.

With `CN1CCC(NC(=O)c2cnn3ccc(-c4c[nH]c5ncc(-c6cccnc6)cc45)cc23)CC1` [Compound 1178, N-(1-Methylpiperidin-4-yl)-5-(5-(pyridin-3-yl)-1H-pyrrolo[2,3-b]pyridin-3-yl)pyrazolo[1,5-a]pyridine-3-carboxamide], the negative logarithm of the EC50 (pEC50) is 8.22.

Turning to `O=C1CC2(CCNCC2)Oc2cc(-c3c[nH]c4ncc(-c5cccnc5)cc34)ccc21` [Compound 1192, 7-(5-(Pyridin-3-yl)-1H-pyrrolo[2,3-b]pyridin-3-yl)spiro[chromane-2,4′-piperidin]-4-one], the pEC50 is 8.00.

As for `COc1ncnc2ccc(-c3c[nH]c4ncc(-c5cccnc5)cc34)cc12` [Compound 1197, 4-Methoxy-6-(5-(pyridin-3-yl)-1H-pyrrolo[2,3-b]pyridin-3-yl) quinazoline], the pEC50 is 8.52.
